Results taken from patent publication US20070110734A9, “Methods and compositions using cellular asialodeterminants and glycoconjugates for targeting cells to tissues and organs” (Department of Veterans Affairs, Rehabilitation R&D Service, priority 2002, published 2007).
Entries after “also recorded” stand apart in the source; their conditions may differ.

Assays:
[1] = system: human mesenchymal stem cells (MSC); assay: In vivo trafficking of 111In-labeled human mesenchymal stem cells (MSC) after glycoprotein infusion, gamma camera imaging; design: species or system NOD-SCID mice; conditions: for % Infused Cells in Heart: 0.56×10^6 MSC preceded by 11 mg orosomucoid i.v.
Procedure: Human mesenchymal stem cells (hMSCs; PT-2501) obtained through a FDA monitored paid bone marrow donor program were purchased from Poietics Technologies, BioWhittaker (Walkerville, Md.). The cells were thawed according to manufacturer recommendations, resuspended, and radiolabeled in Mesenchymal Stem Cell Basal Medium (MSCBM).
(§1) ^111Indium Oxine Labeling Procedure: ^111In-oxine labeling of adult human CD34+ or mesenchymal stem cells (hMSCs) was performed using a modification of the Amersham Healthcare Procedure for labeling autologous leukocytes.
(§2) Imaging procedures: Nuclear Medicine. NOD-SCID mice were anesthetized using rodent anesthesia cocktail. Once anesthetized, the mice were placed on a foam hemi-cylindrical mouse positioning device (MPD) and covered with a tube sock. The MPD allows better visual separation of the lungs and liver as compared to placing the mouse on a flat surface. The foam on which the mouse was placed, and the tube sock covering maintained a comfortable temperature permitting longer imaging without additional anesthesia. The MPD was placed on a narrow table between the dual heads of a Siemens E.Cam Gamma Camera and imaged statically or dynamically in 2-D or SPECT. ^57Co-Spot Marker is used to mark anatomic positions (nose, tail, cannula, etc.). The data was analyzed using a Siemens ICON system for regions of interest or percent of injected dose (e.g. liver, spleen, heart).
(§3) Gamma camera imaging using a Siemens E. Cam dual head gamma camera monitored the in vivo trafficking patterns of all human stem cells described in the following examples. Mice were placed on a Mouse Positioning Device (MPD) and placed between the detectors on the imaging platform.
MSC were obtained from BioWhittaker, (Poietics Division, cryopreserved PT-2501 >750,000 cells per ampoule) and labeled with ^111In as in previous examples, except that the MSC were labeled, washed, and injected in Basal Stem Cell Medium (Poietics) containing 5% human serum albumin (HSA). 0.56×10^6 111In labeled, human mesenchymal stem cells (MSC) were administered via an implanted Da Vinci Microport Vascular System cannula in the external jugular vein of a two-month old, female NOD-SCID mouse in 0.21 ml of basal stem cell medium containing 5% human serum albumin (HSA). Immediately prior to administration of MSC, 11.0 mg of orosomucoid was administered i.v. in 0.2 ml.
0.56×10^6 “In-labeled, MSC were administered i.v. in 0.21 ml of basal stem cell medium containing 5% human serum albumin (HSA). Prior to administration of MSC, 0.1 ml containing 4.3 mg of ASO, followed by 0.1 ml containing 5.5 mg orosomucoid were administered i.v. The ASO, orosomucoid and MSC were administered via an implanted Da Vinci Microport Vascular system cannula in the external jugular vein of a two-month old, female NOD-SCID mouse.

[2] = system: human CD34+ (hCD34+) peripheral blood stem cells; assay: In vivo trafficking of 111In-labeled human CD34+ stem cells (HSC) after glycoprotein infusion, gamma camera imaging; design: species or system NOD-SCID mice; conditions: 0.5×10^6 HSC preceded by 11 mg orosomucoid i.v.
[3] = system: human CD34+ (hCD34+) peripheral blood stem cells; assay: as above; design: species or system NOD-SCID mice; conditions: for % Infused Cells in Liver/Spleen: 5.75×10^6 HSC preceded by 5.5 mg orosomucoid i.v.; for organ localization of infused hematopoietic (CD34+) stem cells, in words: cells preceded by infusion of the protein, jugular vein, immunodeficient mice
Procedure: Intravenous cannulas were placed into the external jugular vein of NOD-SCID mice under anesthesia (Institutional Animal Care and Use Committee protocol #AM87046-07) to enable the efficient delivery of ^111In-labeled stem cells i.v. Tylenol elixir was administered by mouth after recovery from anesthesia. Briefly radiolabeled CD34+ cells were taken up in 100-250 ul of 5% human plasma albumin in saline and injected into the cannula and then flushed with 50 ul of the albumin-saline. The mice were imaged by nuclear medicine.
Mice: NOD-SCID, female mice (Nonobese diabetic/LtSz-scid/scid) were obtained from the Jackson Laboratory, Bar Harbor, Me. at 1-2 months of age. These animals were maintained in microisolator cages in a special isolator room. The air was HEPA filtered, and the animals were changed in a laminar flow hood within the facility. All food, bedding, and water was sterilized. […] See, e.g. Hogan, et al., Biology of Blood & Marrow Transplantation 3:236-246 (1997); Noort, et al., Bone Marrow Transplantation 22 Suppl 1:S58-60 (1998).
as §1, §2, §3
5.75×10^6 111In-labeled human CD34+ (hCD34+) peripheral blood stem cells were administered intravenously (i.v.) via an external jugular vein cannula to 2 month old, NOD-SCID, female mice (Non-obese diabetic/LtSz-scid/scid) obtained from the Jackson Laboratory, Bar Harbor, Me. The radiolabeled CD34+ stem cells were administered after pretreatment of the mouse with 3.3 mg of asialoorosomucoid (ASO) i.v. The in vivo trafficking patterns were followed by gamma camera imaging using a Siemens E.Cam dual head gamma camera from immediately after injection up to 36 hr postinfusion. Human CD34+ were isolated from apheresis stem cell collection products derived from deceased cancer patients. They were purified to 95-99% purity using antibody conjugated to CD34 conjugated to magnetics beads (MACS) separation columns; Miltenyi Biotec, Auburn, Calif. and cryopreserved.
5.75×10^6 111In-labeled human CD34+ (hCD34+) peripheral blood stem cells were administered intravenously (i.v.) via an external jugular vein cannula to 2 month old, NOD-SCID, female mice (Non-obese diabetic/LtSz-scid/scid) obtained from the Jackson Laboratory, Bar Harbor, Me. The radiolabeled CD34+ stem cells were administered after pretreatment of the mouse with 5.5 mg of orosomucoid (O) i.v.
The preparation and procedures set forth in Example I were repeated. […]

Caki-2 Targets [4] = assay: 51Cr-release assay of LAK effectors against CAKI-2 with agent added; type: cell-based, human; conditions: for % 51Chromium Release from Caki-2 Targets: agent 250 μg per well, 5-day LAK, 4-hour incubation
From the text: A working hypothesis is that LAK/NK cells bind to HEPG2 via at least two receptors or recognition structures: 1) the ASGPR, which binds an asialodeterminant on the LAK/NK population and 2) the “LAK” or “NK” recognition structure for a target epitope. The first should be inhibitable by ASF; the second should not be. Binding to CAKI-2 (ASGPR−) should not be inhibited by ASF and is due to a LAK or NK recognition structure binding to the target epitope. This can be further supported by data derived from experiments (see below) in which 250 μg/well of ASF or F were added to the ^51Cr-release assay of LAK effectors against the labeled target CAKI-2.
(% SPECIFIC RELEASE was determined from quadruplicates whose raw counts per minute differed by less than 10 percent; the assay was a standard 4-hour incubation.)

[5] = system: RAJI (LAK-sensitive target; NK-insensitive target); assay: Cytotoxic capacity of LAK effectors in 51Cr-release assay on RAJI; type: cell-based, human
Procedure: (§4) Control cells (no IL-2 treatment) or LAK cells (IL-2-treated human peripheral blood lymphocytes cultured 10U IL-2/ml for 3 days) were adhered to a monolayer of HEP G2 cells for 2 hours at 4° C. The monolayer was pretreated either with asialofetuin (ASF, 200 μg/ml) in media or with fetuin (F, control, 200 μg/ml)) in media. After the Control or LAK cells had been incubated on the monolayer, these cells were then decanted, washed, and tested for cytotoxic capacity in a ^51Cr-release assay against the NK-resistant target, Raji.
(§5) This experiment is the same as above, except that the adherence to monolayers was performed at 23° C. and not 4° C., for 2 hours. Two monolayers were used: HEPG2, an ASGPR+ cell line, and CAKI-2 (human renal cell carcinoma), an ASGPR− cell line. The effector cell populations that were used were: an untreated 3-day old LAK preparation (LAK) and the same population treated with Vibrio cholera neuraminidase (LAK/NS) (30 mU/1×10^7 cells/200 μl). The neuraminidase-treated population was the asialopositive lymphocyte control. All cell populations regardless of treatment were greater than 90% viable at the time of assay. Each type of effector population was incubated with media alone, 200 μg/ml ASF or F, as controls. All effectors were assayed on RAJI (LAK-sensitive target; NK-insensitive target) or K562 (NK/LAK-sensitive target); the E:T ratios and the graphic presentation are the same above.
(§6) Five-day LAK preparations (20 U/ml; 1 Dupont unit=44.5 BRMP units) grown in AIM-V (Gibco) were treated (according to the protocols in B. 1.2.3 & 1.2.4) with 3 OmU Vibric Cholera neuramindase, 0.48 mU 2,3-or 10 mu 2,6-silalyltransferase per 107 cells. Some of the effectors were incubated in media, 10% PBS in RPMJ 1640 at 23° C. for 2 hours. 2×107 effectors from the untreated LALK, neuramithdase-treated LAK, LAK treated with 2,3 or 2,6 were suspended in 15 ml media and placed onto either HEPG2 (ASGPR+) or CAKI-2 (ASGPR−) monolayers at 23° C. for 2 hours. The flasks were rocked every 15 minutes. The nonadherent cells from these monolayers were decanted and assayed against K562 and RAJI, in addition to the unadhered controls. The E:T ratios used were 40, 20, 10, and 5 to 1.

CAKI-2 (ASGPR−) = assay: Adherence of NK/LAK activity to CAKI-2 monolayers at 23° C; type: cell-based, human; conditions: 23° C; 200 μg/ml
Procedure: as §5, §6

Caki-2 Targets [6] = assay: 51Cr-release assay of LAK effectors against CAKI-2 with agent added; type: cell-based, human; conditions: concentration of 1 mg/ml
HEPG2 (ASGPR+) [7] = assay: Adherence of NK/LAK activity to HEPG2 monolayers at 4° C; type: cell-based, human; conditions: monolayer pretreated with 200 μg/ml protein, 2 hours at 4° C, assayed on Raji
Procedure: as §4

HEPG2 (ASGPR+) [8] = assay: Adherence of NK/LAK activity to HEPG2 monolayers at 23° C; type: cell-based, human; conditions: 23° C, 200 μg/ml
Procedure: as §5, §6

[9] = system: K562 (NK/LAK-sensitive target); assay: Cytotoxic capacity of IL-2 activated NK effectors in 51Cr-release assay on K562; type: cell-based, human; conditions: 200 μg/ml; 23° C
Procedure: as §5, §6

alpha-(1)-acid glycoprotein [Orosomucoid]
% Infused Cells in Heart ([1]; 0 hr): 68 ± 7% at 0 hr | % Infused Cells in Heart ([1]; 0 hr, listed as orosomucoid): 68±7% | % Infused Cells in Heart ([1]; 1 hr): 61 ± 3% at 1 hr | % Infused Cells in Heart ([1]; 1 hr, listed as orosomucoid): 61±3% | organ localization of infused mesenchymal stem cells, in words ([1]; cells preceded by infusion of the protein, jugular vein, immunodeficient mice): predominantly localize in the heart | % of infused cells in the liver region ([2]; 1 hr): 40±3% | % of infused cells in the liver and spleen ([2]; immediately after infusion): 43±2% | 111In-labeled cells in the region of the heart, in words ([3]; 5.75×10^6 HSC after 5.5 mg orosomucoid i.v., up to 36 hours): No ^111In-labeled cells were found in the region of the heart | % Infused Cells in Liver/Spleen ([3]; 1.5 hr): 74 ± 4% at 1.5 hr | % Infused Cells in Liver/Spleen ([3]; 1.5 hr, listed as orosomucoid): 74±4% | % Infused Cells in Liver/Spleen ([3]; 24 hr): 63 ± 1% at 24 hr | % Infused Cells in Liver/Spleen ([3]; 24 hr, listed as O): 63.6% | % Infused Cells in Liver/Spleen ([3]; 24 hr, listed as orosomucoid): 63±1% | % Infused Cells in Liver/Spleen ([3]; immediately after infusion (0 hr)): 74 ± 3% at 0 hr | % Infused Cells in Liver/Spleen ([3]; immediately after infusion (0 hr), listed as O): 76.3% | % Infused Cells in Liver/Spleen ([3]; immediately after infusion (0 hr), listed as orosomucoid): 74±3% | organ localization of infused hematopoietic (CD34+) stem cells, in words ([3]; listed as O): migrated immediately to the liver/spleen area | organ localization of infused hematopoietic (CD34+) stem cells, in words ([3]; listed as orosomucoid (O)): localize in the liver

asialofetuin [ASF]
% 51Chromium Release from Caki-2 Targets (Caki-2 Targets [4]; E:T 5:1): 13% | % 51Chromium Release from Caki-2 Targets (Caki-2 Targets [4]; E:T 10:1): 24% | % 51Chromium Release from Caki-2 Targets (Caki-2 Targets [4]; E:T 20:1): 41% | % 51Chromium Release from Caki-2 Targets (Caki-2 Targets [4]; E:T 40:1): 52% | blocking of LAK killing of the tumor target CAKI-2, in words (Caki-2 Targets [4]; preincubation of targets and addition to the assay at 250 μg per well): does not block | activity of LAK or Control preparations incubated with the protein alone versus untreated LAK ([5]; 200 μg/ml for 2 h at 40C, no monolayer): identical activity | ability of effectors (LAK or LAK/NS) to kill RAJI after preincubation with the protein ([5]; 200 μg/ml, 23° C): does not affect | inhibition of adherence to CAKI-2 of IL-2 activated NK or LAK activity (CAKI-2 (ASGPR−)): could not be inhibited; also recorded: cannot be blocked | inhibition of the ability of LAK to kill CAKI-2 target, in words (Caki-2 Targets [6]): did not inhibit | adherence of LAK activity to HEPG2 monolayer, in words (HEPG2 (ASGPR+) [7]): virtually all LAK activity can be inhibited from adhering | adherence of LAK activity to HEPG2 monolayer, in words (HEPG2 (ASGPR+) [7]; listed as asialofetuin): not removed; also recorded: does not adhere | inhibition of adherence to HEPG2 of LAK activity (assayed on RAJI) (HEPG2 (ASGPR+) [8]): could not be inhibited; also recorded: cannot be inhibited | inhibition of adherence of LAK activity of the neuraminidase-treated population to HEPG2 (HEPG2 (ASGPR+) [8]; assayed on RAJI): only marginally be inhibited | inhibition of adherence to HEPG2 of IL-2 activated NK (assayed on K562) (HEPG2 (ASGPR+) [8]; with or without neuraminidase treatment): partially inhibited | ability of effectors (LAK or LAK/NS) to kill K562 after preincubation with the protein [9]: does not affect
